Experimental data reported in patent publication US8192962B2, “Processes for detecting toxic substances” (Daikin Industries, Ltd., priority 2001, dated 2012).

System: Mitochondria-located protein genes
Assay: DNA chip mRNA expression in yeast, mitochondria-located protein genes (Table 2)
Format: cell-based, Saccharomyces cerevisiae S288C
Settings: cells incubated two hours with the chemical substance
Protocol: Yeast (Saccharomyces cerevisiae S288C (α SUC2mal mel gap2 CUP1)) were incubated at 25° C. on YPD medium (yeast extract 1%, polypepton 2%, glucose 2%). One of toxic chemical substances was added to the cells at logarithmic growth phase, and the cells were further incubated for two hours. Cells were cultured without any chemical substance in the same condition, and were used as control. Concentrations of the chemical substances were defined to inhibit the growth of the yeast but not lead to death.
After completion of the incubation, the culture was centrifuged to collect the cells. To the cells, sodium acetate buffer (50 mM sodium acetate, 10 mM EDTA, 1% SDS) was added, and the mixture was shaken at 65° C. for five minutes, followed by returning to room temperature, and obtaining the supernatant, of which the procedures were repeated two times. To the supernatant, ½ amount of a solution of phenol/chloroform was added, and the mixture was centrifuged to give a supernatant, which was added with an equal amount of chloroform, and the mixture was centrifuged to give a supernatant. To the supernatant, an equal amount of isopropanol containing 0.3 M sodium acetate was added, and the mixture was allowed to stand at room temperature for 30 minutes, after which the mixture was centrifuged to give a sediment of the whole RNAs. Seventy % ethanol was added to the sediment, and the mixture was again centrifuged to give a sediment, which was then dried and dissolved in water. mRNA was isolated from the whole RNAs as followings. In view of the fact that a poly A chain is attached to the 3′ terminus of mRNA, a polynucleotide having a poly T structure which was immobilized on the surface of latex beads was used to trap the mRNA, and then the mRNA was washed and eluted with spine column (Oligotex-dT30<Super>mRNA Purification Kit, Takara). Reverse transcription of the mRNA was conducted with a reverse transcriptase (Super Script II Reverse Transcriptase; catalogue No. 18064-014, GibcoBRL) using fluorescence-labeled nucleotides to give cDNAs that were introduced with Cy3-dUTP or Cy5-dUTP during the reverse transcription.
The labeled cDNAs were dissolved in TE buffer (10mM Tris-HCl/1 mM EDTA, pH8.0), and the solution was dropped on the DNA chip containing the whole genes of yeast (DNA Chip Research Inc. Japan) so that the cDNAs were hybridized on the DNA chip at 65° C. for over 12 hours. The fluoresces intensity of the DNA chip was read with a scanner, and the ratio relative to the fluorescence intensity resulting from the absence of chemical substance was estimated as the following, which is shown in Tables 1 to 9: […]

## [Cl][Cd][Cl] [(2), CdCl2]
Yeast gene YJR121W
  The level of expressed mRNA in the presence of chemical substance/The level of expressed mRNA in the absence of chemical substance: 1.1
Yeast gene YKL003C
  The level of expressed mRNA in the presence of chemical substance/The level of expressed mRNA in the absence of chemical substance: 0.7
Yeast gene YKL016C
  The level of expressed mRNA in the presence of chemical substance/The level of expressed mRNA in the absence of chemical substance: 1.3
Yeast gene YKL141W
  The level of expressed mRNA in the presence of chemical substance/The level of expressed mRNA in the absence of chemical substance: 1.1
Yeast gene YKL142W
  The level of expressed mRNA in the presence of chemical substance/The level of expressed mRNA in the absence of chemical substance: 2.7
Yeast gene YKL148C
  The level of expressed mRNA in the presence of chemical substance/The level of expressed mRNA in the absence of chemical substance: 0.8
Yeast gene YKL170W
  The level of expressed mRNA in the presence of chemical substance/The level of expressed mRNA in the absence of chemical substance: 0.8
Yeast gene YKL194C
  The level of expressed mRNA in the presence of chemical substance/The level of expressed mRNA in the absence of chemical substance: 0.7
Yeast gene YKR066C
  The level of expressed mRNA in the presence of chemical substance/The level of expressed mRNA in the absence of chemical substance: 1.4
Yeast gene YLL041C
  The level of expressed mRNA in the presence of chemical substance/The level of expressed mRNA in the absence of chemical substance: 0.5
Yeast gene YLR038C
  The level of expressed mRNA in the presence of chemical substance/The level of expressed mRNA in the absence of chemical substance: 1.1
Yeast gene YLR259C
  The level of expressed mRNA in the presence of chemical substance/The level of expressed mRNA in the absence of chemical substance: 1.0
Yeast gene YLR295C
  The level of expressed mRNA in the presence of chemical substance/The level of expressed mRNA in the absence of chemical substance: 1.1
Yeast gene YLR304C
  The level of expressed mRNA in the presence of chemical substance/The level of expressed mRNA in the absence of chemical substance: 0.6
Yeast gene YLR348C
  The level of expressed mRNA in the presence of chemical substance/The level of expressed mRNA in the absence of chemical substance: 4.5
Yeast gene YLR395C
  The level of expressed mRNA in the presence of chemical substance/The level of expressed mRNA in the absence of chemical substance: 1.3
Yeast gene YML054C
  The level of expressed mRNA in the presence of chemical substance/The level of expressed mRNA in the absence of chemical substance: 1.8
Yeast gene YML120C
  The level of expressed mRNA in the presence of chemical substance/The level of expressed mRNA in the absence of chemical substance: 1.2
Yeast gene YML129C
  The level of expressed mRNA in the presence of chemical substance/The level of expressed mRNA in the absence of chemical substance: 0.9
Yeast gene YMR023C
  The level of expressed mRNA in the presence of chemical substance/The level of expressed mRNA in the absence of chemical substance: 1.3
Yeast gene YMR035W
  The level of expressed mRNA in the presence of chemical substance/The level of expressed mRNA in the absence of chemical substance: 1.7
Yeast gene YMR083W
  The level of expressed mRNA in the presence of chemical substance/The level of expressed mRNA in the absence of chemical substance: 1.7
Yeast gene YMR089C
  The level of expressed mRNA in the presence of chemical substance/The level of expressed mRNA in the absence of chemical substance: 1.1
Yeast gene YMR152W
  The level of expressed mRNA in the presence of chemical substance/The level of expressed mRNA in the absence of chemical substance: 1.1
Yeast gene YMR203W
  The level of expressed mRNA in the presence of chemical substance/The level of expressed mRNA in the absence of chemical substance: 0.7
Yeast gene YMR267W
  The level of expressed mRNA in the presence of chemical substance/The level of expressed mRNA in the absence of chemical substance: 1.8
Yeast gene YNL055C
  The level of expressed mRNA in the presence of chemical substance/The level of expressed mRNA in the absence of chemical substance: 1.8
Yeast gene YNL071W
  The level of expressed mRNA in the presence of chemical substance/The level of expressed mRNA in the absence of chemical substance: 0.9
Yeast gene YNL073W
  The level of expressed mRNA in the presence of chemical substance/The level of expressed mRNA in the absence of chemical substance: 1.4
Yeast gene YNL104C
  The level of expressed mRNA in the presence of chemical substance/The level of expressed mRNA in the absence of chemical substance: 1.3
Yeast gene YNL256W
  The level of expressed mRNA in the presence of chemical substance/The level of expressed mRNA in the absence of chemical substance: 1.6
Yeast gene YOL096C
  The level of expressed mRNA in the presence of chemical substance/The level of expressed mRNA in the absence of chemical substance: 1.0
Yeast gene YOR020C
  The level of expressed mRNA in the presence of chemical substance/The level of expressed mRNA in the absence of chemical substance: 2.1
Yeast gene YOR037W
  The level of expressed mRNA in the presence of chemical substance/The level of expressed mRNA in the absence of chemical substance: 1.5
Yeast gene YOR100C
  The level of expressed mRNA in the presence of chemical substance/The level of expressed mRNA in the absence of chemical substance: 1.4
Yeast gene YOR130C
  The level of expressed mRNA in the presence of chemical substance/The level of expressed mRNA in the absence of chemical substance: 1.7
Yeast gene YOR142W
  The level of expressed mRNA in the presence of chemical substance/The level of expressed mRNA in the absence of chemical substance: 1.2
Yeast gene YOR150W
  The level of expressed mRNA in the presence of chemical substance/The level of expressed mRNA in the absence of chemical substance: 1.2
Yeast gene YOR176W
  The level of expressed mRNA in the presence of chemical substance/The level of expressed mRNA in the absence of chemical substance: 2.6
Yeast gene YOR187W
  The level of expressed mRNA in the presence of chemical substance/The level of expressed mRNA in the absence of chemical substance: 0.5
Yeast gene YOR316C
  The level of expressed mRNA in the presence of chemical substance/The level of expressed mRNA in the absence of chemical substance: 2.5
Yeast gene YPL040C
  The level of expressed mRNA in the presence of chemical substance/The level of expressed mRNA in the absence of chemical substance: 1.0
Yeast gene YPL134C
  The level of expressed mRNA in the presence of chemical substance/The level of expressed mRNA in the absence of chemical substance: 1.0
Yeast gene YPL135W
  The level of expressed mRNA in the presence of chemical substance/The level of expressed mRNA in the absence of chemical substance: 1.2
Yeast gene YPL215W
  The level of expressed mRNA in the presence of chemical substance/The level of expressed mRNA in the absence of chemical substance: 1.9
Yeast gene YPL262W
  The level of expressed mRNA in the presence of chemical substance/The level of expressed mRNA in the absence of chemical substance: 1.7
Yeast gene YPR024W
  The level of expressed mRNA in the presence of chemical substance/The level of expressed mRNA in the absence of chemical substance: 1.0
Yeast gene YPR037C
  The level of expressed mRNA in the presence of chemical substance/The level of expressed mRNA in the absence of chemical substance: 2.3
Yeast gene YPR047W
  The level of expressed mRNA in the presence of chemical substance/The level of expressed mRNA in the absence of chemical substance: 1.0
Yeast gene YPR134W
  The level of expressed mRNA in the presence of chemical substance/The level of expressed mRNA in the absence of chemical substance: 1.1
